From PubChem BioAssay AID256 (DTP/NCI, 2004)
Several values for one entry are separate records, joined by “and”; a condition that tells them apart may be missing. Identical values can stand only once. Toxic doses and inconclusive results are not listed. The calls were made as follows: active = survival T/C of 150% or more; inactive = T/C below 125% in these data.

System: CD2F1 mice, L1210 leukemia ip, survival T/C
Test: NCI In Vivo Anticancer Drug Screen. Data for tumor model L1210 Leukemia (intraperitoneal) in CD2F1 (CDF1) mice
Settings: higher = longer survival
Method in brief: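 Read-out first: treated-group measurement over vehicle-control measurement, expressed as a ratio. Animals bore a transplanted tumor line and were dosed with compound or vehicle.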

[1] = endpoint: mean survival time, dose: 100.0 mg/kg/injection, schedule: Q04DX003 (ip), vehicle: saline with Tween-80
[2] = endpoint: mean survival time, dose: 200.0 mg/kg/injection, schedule: Q04DX003 (ip), vehicle: saline with Tween-80
[3] = endpoint: mean survival time, dose: 400.0 mg/kg/injection, schedule: Q04DX003 (ip), vehicle: saline with Tween-80
[4] = endpoint: mean survival time, dose: 12.5 mg/kg/injection, schedule: Q01DX009 (ip), vehicle: saline with Tween-80
[5] = endpoint: mean survival time, dose: 25.0 mg/kg/injection, schedule: Q01DX009 (ip), vehicle: saline with Tween-80
[6] = endpoint: mean survival time, dose: 50.0 mg/kg/injection, schedule: Q01DX009 (ip), vehicle: saline with Tween-80
[7] = endpoint: mean survival time, dose: 100.0 mg/kg/injection, schedule: Q01DX009 (ip), vehicle: saline with Tween-80
[8] = endpoint: mean survival time, dose: 200.0 mg/kg/injection, schedule: Q01DX009 (ip), vehicle: saline with Tween-80
[9] = endpoint: mean survival time, dose: 100.0 mg/kg/injection, schedule: Q04DX003 (ip), vehicle: saline
[10] = endpoint: mean survival time, dose: 200.0 mg/kg/injection, schedule: Q04DX003 (ip), vehicle: saline
[11] = endpoint: mean survival time, dose: 400.0 mg/kg/injection, schedule: Q04DX003 (ip), vehicle: saline
[12] = endpoint: mean survival time, dose: 25.0 mg/kg/injection, schedule: Q04DX003 (ip), vehicle: Klucel (hydroxypropylcellulose) (HPC)
[13] = endpoint: mean survival time, dose: 50.0 mg/kg/injection, schedule: Q04DX003 (ip), vehicle: Klucel (hydroxypropylcellulose) (HPC)
[14] = endpoint: mean survival time, dose: 100.0 mg/kg/injection, schedule: Q04DX002 (ip), vehicle: saline with Tween-80
[15] = endpoint: mean survival time, dose: 200.0 mg/kg/injection, schedule: Q04DX002 (ip), vehicle: saline with Tween-80
[16] = endpoint: mean survival time, dose: 400.0 mg/kg/injection, schedule: Q04DX002 (ip), vehicle: saline with Tween-80
[17] = endpoint: mean survival time, dose: 100.0 mg/kg/injection, schedule: Q01DX001 (ip), vehicle: saline
[18] = endpoint: mean survival time, dose: 200.0 mg/kg/injection, schedule: Q01DX001 (ip), vehicle: saline
[19] = endpoint: mean survival time, dose: 400.0 mg/kg/injection, schedule: Q01DX001 (ip), vehicle: saline

Measured: T/C

NC(=O)CCC(N)C(=O)O (stereo not given)
inactive: endpoint: mean survival time, dose: 1.56 mg/kg/injection, schedule: Q01DX009 (ip), vehicle: saline 93 % of control | endpoint: mean survival time, dose: 3.13 mg/kg/injection, schedule: Q01DX009 (ip), vehicle: saline 104 % of control | endpoint: mean survival time, dose: 6.25 mg/kg/injection, schedule: Q01DX009 (ip), vehicle: saline 104 % of control | endpoint: median survival time, dose: 25.0 mg/kg/injection, schedule: Q01DX009 (ip), vehicle: saline 94 % of control | endpoint: median survival time, dose: 50.0 mg/kg/injection, schedule: Q01DX009 (ip), vehicle: saline 106 % of control | endpoint: median survival time, dose: 100.0 mg/kg/injection, schedule: Q01DX009 (ip), vehicle: saline 106 % of control | endpoint: median survival time, dose: 200.0 mg/kg/injection, schedule: Q01DX009 (ip), vehicle: saline 106 % of control | endpoint: median survival time, dose: 400.0 mg/kg/injection, schedule: Q01DX009 (ip), vehicle: saline 104 % of control

COC1CCCCC1SCSC1CCCCC1OC (stereo not given)
inactive: [1] 91 % of control | [2] 87 % of control | [3] 89 % of control

c1cnc2ncncc2n1
inactive: [4] 94 % of control and 102 % of control | [5] 94 % of control and 102 % of control | [6] 105 % of control and 106 % of control | [7] 94 % of control and 104 % of control | [8] 96 % of control and 110 % of control

CCCCCCCC1C(=O)OC2CC3C(C)=CC(=O)C(O)C3(C)C3C4(O)OCC23C1C(C)C4O (stereo not given)
inactive: endpoint: median survival time, dose: 2.5 mg/kg/injection, schedule: Q01DX005 (ip), vehicle: Klucel (hydroxypropylcellulose) (HPC) 109 % of control | endpoint: median survival time, dose: 5.0 mg/kg/injection, schedule: Q01DX005 (ip), vehicle: Klucel (hydroxypropylcellulose) (HPC) 106 % of control | endpoint: median survival time, dose: 10.0 mg/kg/injection, schedule: Q01DX005 (ip), vehicle: Klucel (hydroxypropylcellulose) (HPC) 102 % of control | endpoint: median survival time, dose: 20.0 mg/kg/injection, schedule: Q01DX005 (ip), vehicle: Klucel (hydroxypropylcellulose) (HPC) 108 % of control

COC(=O)C(=O)c1ccccc1
inactive: [9] 96 % of control | [10] 102 % of control | [11] 103 % of control

CC(C)(C)Nc1ccc([N+](=O)[O-])cc1Cl
inactive: endpoint: mean survival time, dose: 12.5 mg/kg/injection, schedule: Q01DX001 (ip), vehicle: DMSO 89 % of control | endpoint: mean survival time, dose: 25.0 mg/kg/injection, schedule: Q01DX001 (ip), vehicle: DMSO 100 % of control | [12] 93 % of control | endpoint: mean survival time, dose: 50.0 mg/kg/injection, schedule: Q01DX001 (ip), vehicle: DMSO 103 % of control | [13] 94 % of control | endpoint: mean survival time, dose: 100.0 mg/kg/injection, schedule: Q04DX003 (ip), vehicle: Klucel (hydroxypropylcellulose) (HPC) 91 % of control

Cc1ccc(-c2nc3ncnc(N)c3[nH]2)cc1[N+](=O)[O-]
inactive: endpoint: mean survival time, dose: 37.5 mg/kg/injection, schedule: Q01DX001 (ip), vehicle: saline with Tween-80 101 % of control | endpoint: mean survival time, dose: 75.0 mg/kg/injection, schedule: Q01DX001 (ip), vehicle: saline with Tween-80 90 % of control | endpoint: mean survival time, dose: 150.0 mg/kg/injection, schedule: Q01DX001 (ip), vehicle: saline with Tween-80 88 % of control

C[n+]1ccccc1/C=N/O
inactive: endpoint: mean survival time, dose: 25.0 mg/kg/injection, schedule: Q04DX003 (ip), vehicle: saline 96 % of control | endpoint: mean survival time, dose: 50.0 mg/kg/injection, schedule: Q04DX003 (ip), vehicle: saline 94 % of control | [9] 93 % of control and 97 % of control

CON(C)CC(O)c1ccccc1 (stereo not given)
inactive: [1] 94 % of control | [2] 92 % of control

NC(CN1CCCCC1)C(=O)O (stereo not given)
inactive: [14] 98 % of control | [15] 90 % of control | [16] 94 % of control

N#CCC(N)=S
inactive: [4] 112 % of control | [5] 106 % of control | [6] 96 % of control

CCN(CCNc1ccc(C)c2sc3cc(Cl)ccc3c(=O)c12)CC(C)O (stereo not given)
inactive: endpoint: mean survival time, dose: 50.0 mg/kg/injection, schedule: Q01DX001 (ip), vehicle: saline 94 % of control | [17] 88 % of control | [9] 94 % of control | [18] 94 % of control | [10] 94 % of control | [19] 96 % of control | [11] 102 % of control

CCOC(=O)Oc1c(Cl)c(Cl)c(Cl)c(Cl)c1Cl
inactive: [1] 96 % of control | [2] 96 % of control | [3] 95 % of control

CC(N)C(=O)NC1C(CO)OC(n2cnc3c(N)ncnc32)C1O (stereo not given)
inactive: [17] 100 % of control | [18] 97 % of control | [19] 100 % of control

CC(=O)OC(OC(C)=O)c1ccc([N+](=O)[O-])cc1
inactive: [7] 103 % of control | [1] 105 % of control | [8] 97 % of control | [2] 100 % of control | endpoint: mean survival time, dose: 400.0 mg/kg/injection, schedule: Q01DX009 (ip), vehicle: saline with Tween-80 97 % of control | [3] 92 % of control

CCOC(=O)C(C)(C)Oc1nn(Cc2ccccc2)c2ccccc12
inactive: endpoint: mean survival time, dose: 25.0 mg/kg/injection, schedule: Q04DX003 (ip), vehicle: saline with Tween-80 104 % of control | endpoint: mean survival time, dose: 50.0 mg/kg/injection, schedule: Q04DX003 (ip), vehicle: saline with Tween-80 102 % of control | [1] 102 % of control

CCOC(=O)c1c[nH]c2cc(OC)ccc2c1=O
inactive: [1] 91 % of control | [2] 102 % of control | [3] 100 % of control

CCCCCCCCCCCCCC(CCCCCCCC)CCCCCCCC
inactive: endpoint: mean survival time, dose: 100.0 mg/kg/injection, schedule: Q01DX001 (ip), vehicle: saline sonified 111 % of control | endpoint: mean survival time, dose: 200.0 mg/kg/injection, schedule: Q01DX001 (ip), vehicle: saline sonified 104 % of control | endpoint: mean survival time, dose: 400.0 mg/kg/injection, schedule: Q01DX001 (ip), vehicle: saline sonified 101 % of control

O=C(O)/C=C/C(=O)Nc1ccc(Cl)cc1
inactive: [7] 104 % of control | [8] 89 % of control

Cn1c(=O)[nH]cc(C2OC(CO)C(O)C2O)c1=O (stereo not given)
inactive: endpoint: median survival time, dose: 12.5 mg/kg/injection, schedule: Q01DX005 (ip), vehicle: saline 103 % of control | endpoint: median survival time, dose: 25.0 mg/kg/injection, schedule: Q01DX005 (ip), vehicle: saline 100 % of control | endpoint: median survival time, dose: 50.0 mg/kg/injection, schedule: Q01DX005 (ip), vehicle: saline 92 % of control | endpoint: median survival time, dose: 100.0 mg/kg/injection, schedule: Q01DX005 (ip), vehicle: saline 100 % of control | endpoint: median survival time, dose: 200.0 mg/kg/injection, schedule: Q01DX005 (ip), vehicle: saline 107 % of control

O=C(Nc1c(Oc2ccc(Cl)cc2Cl)ccc(Cl)c1S(=O)(=O)O)Nc1c(Oc2ccc(Cl)cc2Cl)ccc(Cl)c1S(=O)(=O)O
inactive: [17] 94 % of control | [18] 93 % of control

COc1ccc2cc1Oc1ccc(cc1)C[C@@H]1c3cc(c(OC)cc3CCN1C)Oc1c(OC)c(OC)cc3c1[C@H](C2)N(C)CC3
inactive: endpoint: mean survival time, dose: 50.0 mg/kg/injection, schedule: Q04DX002 (ip), vehicle: saline with Tween-80 94 % of control | [14] 94 % of control | [15] 94 % of control | [16] 90 % of control

C1=CC2C3c4ccccc4C(C2C1)[n+]1ccccc13 (stereo not given)
inactive: endpoint: mean survival time, dose: 12.5 mg/kg/injection, schedule: Q04DX003 (ip), vehicle: Klucel (hydroxypropylcellulose) (HPC) 95 % of control | [12] 97 % of control | [13] 93 % of control

c1ccc2c(c1)ccn2CCCCn1ccc2ccccc21
inactive: [6] 101 % of control | [7] 101 % of control | [8] 101 % of control
